Consider one molecule from PubChem BioAssay AID1671247.

The target in this test is Casein kinase I isoform gamma-2 (Homo sapiens) (UniProt P78368). Nature of the test: PubChem AID 1671247. The following applies: Z'-LYTE FRET kinase activity assay.
Sequence of Casein kinase I isoform gamma-2 (Homo sapiens) (P78368 whole entry, looked up, canonical isoform): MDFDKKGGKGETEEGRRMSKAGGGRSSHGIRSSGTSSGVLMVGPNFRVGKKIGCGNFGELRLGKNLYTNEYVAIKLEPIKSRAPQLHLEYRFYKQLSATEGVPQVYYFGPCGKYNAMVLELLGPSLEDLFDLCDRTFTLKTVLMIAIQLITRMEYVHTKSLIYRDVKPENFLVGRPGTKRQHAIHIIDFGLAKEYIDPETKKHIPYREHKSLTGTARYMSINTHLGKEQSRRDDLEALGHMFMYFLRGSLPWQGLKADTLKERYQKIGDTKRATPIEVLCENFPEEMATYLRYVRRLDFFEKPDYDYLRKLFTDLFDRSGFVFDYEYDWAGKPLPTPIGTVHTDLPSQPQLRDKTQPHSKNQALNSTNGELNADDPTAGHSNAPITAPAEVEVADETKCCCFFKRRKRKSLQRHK

`Brc1c(Br)c(Br)c2n[nH]nc2c1Br`: the IC50 (usually the midpoint of a concentration-inhibition curve) was 26.5 µM.
